Experimental data taken from publication PMC7604311, “Caprine Bactenecins as Promising Tools for Developing New Antimicrobial and Antitumor Drugs” (Frontiers in Cellular and Infection Microbiology, 2020).
Like-named read-outs stand apart in the source and are kept apart here. Bridge positions count the residues as written; N and C are the ends. Ends that are not written are not given here.

Assays:
E. coli ML-35p = experiment: Broth microdilution assay (MIC); assay type: cell-based, Escherichia coli; details: 50% MH broth/50% 10 mM Na-P buffer pH 7.4 with 0.1% BSA, 1×10^6 CFU/ml, 20 h, median of 3–6 independent experiments in triplicate
Experimental: The minimal inhibitory concentrations (MIC) of peptides were determined using microdilution assay in Müller–Hinton (MH) broth in general accordance with the guidelines of the European Committee for Antimicrobial Susceptibility Testing. Test plates were additionally pretreated with 0.1% bovine serum albumin (BSA) in distilled H2O (incubated for 1 h at 37°C) to reduce possible non-specific binding of peptides to the plastic surface of the wells, as proposed for AMP activity measuring ([Tossi et al., 1997]; [Wiegand et al., 2008]). Two-fold serial dilutions of peptides starting with 2 × stock concentration were prepared in sterile 10 mM sodium phosphate (Na-P) buffer, pH 7.4, with 0.1% BSA. Thus, final solutions contained 50% of Na-P diluted peptide and 50% of MH broth with bacteria. Bacteria for testing were grown overnight, then transferred into a fresh portion of 2.1% MH medium and additionally incubated for 2–3 h to obtain bacterial culture in its mid-logarithmic growth phase, which was diluted down to the final concentration of 1 × 10^6 CFU/ml. Concentration of bacteria in growth medium was calculated based on its absorbance at 620 nm.
After 20 h of incubation of AMPs with bacteria MICs were determined as lowest concentrations of AMPs completely preventing the visible growth of bacteria. Tests were performed in 60-well Terasaki microplates (10 µl end volume, V-shaped bottom; Sarstedt, Germany); dilutions in each test were made in triplicate. Final MIC values were calculated as medians based on the results of 3–5 independent experiments.

A. baumannii 7226/16 = assay type: cell-based, Acinetobacter baumannii; details: 7226/16, 24 h
Experimental: Quantification of the biofilms forming in the presence of various concentrations of tested AMPs was performed using the crystal violet assay according to general guidelines ([Merritt et al., 2006]). Tests were performed in polystyrene 96-well plates with U-shaped bottom. Peptides were serially diluted in a bacterial growth medium (MH for A. baumannii or TSB for P. aeruguinosa) in a volume of 50 μl per well. Overnight cultures of tested bacteria in a stationary phase of growth were 50 times diluted and introduced into the experimental wells at the same volume of 50 μl. Samples were incubated for 24 h at 37°C. The content of the wells was then shacked out, the plates were gently washed from unattached planktonic bacteria in still water (poured into a large enough vessel); bacterial cells and matrix components adhered to the walls of the wells were stained with a 0.1% aqueous solution of crystal violet dye: 125 μl of dye solution was put into each well and incubated at room temperature for 10 min. […] One hundred and twenty five microliters of crystal violet extract from each well were transferred into a flat-bottomed microtiter plate, and the optical density was measured at a wavelength of 560–595 nm (depending on the maximum of absorption in a particular experiment). […] Presented results are medians calculated based on 3 independent experiments.

P. aeruginosa MDR 522/17 = assay type: cell-based, Pseudomonas aeruginosa; details: MDR 522/17, 24 h
Experimental: Quantification of the biofilms forming in the presence of various concentrations of tested AMPs was performed using the crystal violet assay according to general guidelines ([Merritt et al., 2006]). Tests were performed in polystyrene 96-well plates with U-shaped bottom. Peptides were serially diluted in a bacterial growth medium (MH for A. baumannii or TSB for P. aeruguinosa) in a volume of 50 μl per well. Overnight cultures of tested bacteria in a stationary phase of growth were 50 times diluted and introduced into the experimental wells at the same volume of 50 μl. Samples were incubated for 24 h at 37°C. The content of the wells was then shacked out, the plates were gently washed from unattached planktonic bacteria in still water (poured into a large enough vessel); bacterial cells and matrix components adhered to the walls of the wells were stained with a 0.1% aqueous solution of crystal violet dye: 125 μl of dye solution was put into each well and incubated at room temperature for 10 min. After staining dye solution was removed, the plates were washed with clean water and allowed to air-dry. Finally, the bound dye was redissolved by adding 200 μl of 30% acetic acid into each well, incubating it for 15 min at room temperature, and then thoroughly mixing the content of the wells by pipetting. One hundred and twenty five microliters of crystal violet extract from each well were transferred into a flat-bottomed microtiter plate, and the optical density was measured at a wavelength of 560–595 nm (depending on the maximum of absorption in a particular experiment). Experimental samples were made in quadruplicates, and there were 8–9 repeats of control samples without peptides in each test. Presented results are medians calculated based on 3 independent experiments.

MTT test = assay type: cell-based; details: human, serum-free RPMI-1640, overnight incubation, mean ± SD of three independent tests, read-out: IC50 of cytotoxic action toward human PBMC
Experimental: Cytotoxic activity of peptides toward various types of eukaryotic cells was assessed using the standard MTT [3-(4,5-Dimethylthiazol-2-yl)-2,5-diphenyltetrazolium bromide] test ([Mosmann, 1983]). Human peripheral blood mononuclear cells (PBMC) were isolated from the peripheral blood of healthy donors. Whole heparinized blood diluted 3-fold with sterile PBS was carefully layered upon the 5 ml of the sterile Ficoll-400 (Pharmacia, Sweden) with a density of 1.077 in a sterile 50 ml conical tube and then centrifuged at 600 g and 4°C for 40 min. The mononuclear “ring” remaining above the Ficoll was collected using a transfer pipette and placed in another tube. Cells were washed twice with sterile PBS, resuspended in RPMI-1640 culture medium and immediately used for the test. Tumor cell lines were purchased from Biolot (Saint Petersburg, Russia) and cultured at 37°C and 5% CO2 in RPMI-1640 medium (Biolot, Saint Petersburg, Russia) supplemented with 10% fetal bovine serum, glutamine, and penicillin-streptomycin combination. For the experiments, cells were washed from the medium they were growing in and resuspended in serum- and antibiotic-free RPMI-1640. Cells were added at not less than 2 × 10^4 per well in sterile flat bottom 96-well microplates containing serial dilutions of tested peptides in RPMI-1640. For the positive control (100% viable cells), RPMI-1640 medium was used instead of the peptide solution, whereas for the negative control (0% viable cells) medium replaced both peptide and cells. Test plates were incubated at 37°C and 5% CO2 overnight, after which MTT metabolic marker in PBS (5 mg/ml) was introduced into each well. After an additional 4 h incubation, the reaction was stopped by adding isopropanol supplemented with 0.04 M HCl, in which the formazan crystals (formed as a result of MTT reduction in presence of metabolically active cells) were dissolved, and OD at 540 nm was measured. Background absorbance at 690 nm was subtracted from the results to countervail any unspecific OD fluctuations. The % of surviving cells was found as:
(2) Survival(%)=(ODsample−OD0% viable)/(OD100% viable−OD0% viable)×100%,
(§1) where ODsample, OD0% viable, and OD100% viable are respectively values of the OD at 540 nm minus the OD at 690 nm for the test sample and negative or positive controls. IC50 toxicity values were determined by nonlinear regression analysis of the dose response curves using Sigma Plot 11 (Systat Software Inc., USA). The experiments were repeated three times, with 3 parallels of samples and 4–6 parallels of controls each time.

human erythrocytes = details: cited from earlier work
Text: The majority of AMPs are membranolytic, and even though eukaryotic cell membranes are less anionic than those of bacterial cells, have a lower membrane potential and are protected by the presence of cholesterol ([Matsuzaki, 2009]), they are considered to be a secondary target, affecting the selectivity of AMPs. […] The hemolysis assay is widely utilized for the express analysis of the toxic properties of AMPs, relating to their membranolytic activity. It was previously shown that na ...

U937 = experiment: MTT test; assay type: cell-based, human; details: serum-free RPMI-1640, overnight incubation, mean ± SD of three independent tests, read-out: IC50 of cytotoxic action toward U937
Experimental: Cytotoxic activity of peptides toward various types of eukaryotic cells was assessed using the standard MTT [3-(4,5-Dimethylthiazol-2-yl)-2,5-diphenyltetrazolium bromide] test ([Mosmann, 1983]). Human peripheral blood mononuclear cells (PBMC) were isolated from the peripheral blood of healthy donors. Whole heparinized blood diluted 3-fold with sterile PBS was carefully layered upon the 5 ml of the sterile Ficoll-400 (Pharmacia, Sweden) with a density of 1.077 in a sterile 50 ml conical tube and then centrifuged at 600 g and 4°C for 40 min. The mononuclear “ring” remaining above the Ficoll was collected using a transfer pipette and placed in another tube. Cells were washed twice with sterile PBS, resuspended in RPMI-1640 culture medium and immediately used for the test. Tumor cell lines were purchased from Biolot (Saint Petersburg, Russia) and cultured at 37°C and 5% CO2 in RPMI-1640 medium (Biolot, Saint Petersburg, Russia) supplemented with 10% fetal bovine serum, glutamine, and penicillin-streptomycin combination. For the experiments, cells were washed from the medium they were growing in and resuspended in serum- and antibiotic-free RPMI-1640. Cells were added at not less than 2 × 10^4 per well in sterile flat bottom 96-well microplates containing serial dilutions of tested peptides in RPMI-1640. […] After an additional 4 h incubation, the reaction was stopped by adding isopropanol supplemented with 0.04 M HCl, in which the formazan crystals (formed as a result of MTT reduction in presence of metabolically active cells) were dissolved, and OD at 540 nm was measured. Background absorbance at 690 nm was subtracted from the results to countervail any unspecific OD fluctuations. […]
as §1, with “The experiments were repeated three times, with 3 parallels of samples and 4–6 parallels of controls each time.” left out

K562 cells [1] = experiment: Trypan blue dye exclusion assay; assay type: cell-based, human; details: K562, 1×10^6 cells/ml, serum-free RPMI-1640, first 3 h of incubation
Experimental: Living cells exclude the dye, so that their cytoplasm remains clear. When damaged cells take up the dye, it binds to intracellular proteins and renders them a blue color. Cells suspended to a concentration of 1 × 10^6 per ml in RPMI-1640 medium (serum-free) were incubated with various concentrations of the peptides of interest for various periods of time at 37°C and 5% CO2. Then they were stained with 0.2% trypan blue dye solution in PBS for 3 min at room temperature, and dead and living cells were counted using a hemocytometer. Percentage of viable cells was calculated as follows:
(3) Viable cells (%) =total number of viable cells/total number of cells×100%,
Experiments were repeated three times before plotting time-killing curves. For each time point, data are presented as mean with standard deviation (SD).

K562 cells [2] = experiment: Annexin V-Cy3 apoptosis detection assay; assay type: cell-based, human; details: K562, 2 h incubation with peptide, Annexin-Cy3.18/6-CFDA staining
Text: Annexin V-Cy3 Apoptosis Detection kit (Sigma, USA) was used to distinguish between cells dying via necrosis and cells entering apoptosis. This kit includes a combination of red and green fluorescent dyes; 6-Carboxyfluorescein diacetate (6-CFDA) is hydrolyzed by esterases inside viable (still functional) cells, producing the green fluorescent compound 6-carboxyfluorescein. Annexin-Cy3.18, giving red fluorescence, binds to phosphatidylserine which only becomes exposed in the outer leaflet of the plasma membrane for cells entering the apoptotic process, or if the plasma membrane is damaged during necrosis. Thus, living cells are only stained green, necrotic ones are only stained red, while cells in the early stages of apoptosis are stained by both dyes.
To assess the effects of the peptides, cells were incubated in their presence for 2 h under the same conditions as described for trypan blue assay. […] After 10 min incubation at room temperature cells were washed from excess dyes with 1 × binding buffer and analyzed under the luminescent microscope (Leica DM2500, Leica Microsystems, Germany). […] The resulting percentage of viable, apoptotic, and necrotic cells are shown as mean with SD, calculated based on three independent experiments.

Substance | MIC (E. coli ML-35p) [µM] | Biofilm inhibition (P. aeruginosa MDR 522/17) [%] | IC50 (MTT test) [µM] | other results
RFRLPFRRPPIRIHPPPFYPPFRRFL-NH2 [ChBac3.4-NH2] | 2 | 63 ± 9 | 18.6 ± 0.8 | Biofilm inhibition (A. baumannii 7226/16): 56 ± 12%; Hemolytic activity (human erythrocytes): not hemolytic
RFRLPFRRPPIRIPPPFYPPFRRFL-NH2 [ChBac3.4(Н-)] | 4 |  | 34.7 ± 7.3 | 
RFRLPFRRPWPIRIHPPPFYPWPFRRFL [ChBac3.4-2-COOH] | 4 |  | 20.2 ± 4.5 | 
RFRRFRLPFRRIHPPPFVRIHPPPFYRRFL-NH2 [RFR-ChBac3.4-1-NH2] | 4 | 62 ± 1.5 | 18.3 ± 4.1 | 
RFRRFRLPFRRPPIRIH-NH2 [RFR-ChBac3.4 (1-14)-NH2] | 1 | 79 ± 5 | > 64 | Biofilm inhibition (A. baumannii 7226/16; 2): 53 ± 3%; IC50 (U937): > 64 µM
RIHPPPFYPPFRRFL-NH2 [ChBac3.4 (12-26)] | 64 |  | 43.3 ± 7.7 | 
protegrin 1 (RGGRLCYCRRRFCVCVGR-NH2; disulfide 8-13, 6-15; ends not checked; UniProt P32194 131-148, looked up) [PG-1] |  |  |  | Dynamics of cytocidal action (K562 cells [1]): swift and pronounced effect, observable in the first 30 min of exposure; Apoptosis versus necrosis (K562 cells [2]): prominent, dose-dependent prevalence of necrosis over apoptosis
